Drawing on ChEMBL document CHEMBL1221341, “[17(20)E]- and [17(20)Z]-pregna-5,17(20)-dien-21-oylamides. Facile synthesis and primary evaluation for cancer cells proliferation” (Bioorg Med Chem Lett, 2010), this text covers Activity for 4 molecules.

Calls of active or inactive are those of the source. The calls are words filed in the database; no cut-off is given here.

Type in all cases: functional, cell-based
In assay [1] the test system is MCF7. Description: Antiproliferative activity against human MCF7 cells at 0.1 to 0.3 uM after 48 hrs by MTT assay.
Assay [2] relates to LNCaP. Description: Antiproliferative activity against human LNCAP cells at 0.1 to 0.3 uM after 48 hrs by MTT assay. In general terms: Tetrazolium assays rely on reduction of a dye to a coloured formazan, in cell work by metabolically active cells.
In assay [3] the test system is MCF7. Description: Antiproliferative activity against human MCF7 cells at 30 uM after 48 hrs by MTT assay.
The subject of assay [4] is LNCaP. Description: Antiproliferative activity against human LNCAP cells at 30 uM after 48 hrs by MTT assay.

`C[C@]12CC[C@H](O)CC1=CC[C@@H]1[C@@H]2CC[C@]2(C)/C(=C/C(=O)NCCO)CC[C@@H]12`: the result in assay [1] and in assay [2] was inactive. Moreover, the outcome in assay [3] and in assay [4] was Active.
Turning to `C[C@]12CC[C@H](O)CC1=CC[C@@H]1[C@@H]2CC[C@]2(C)/C(=C/C(=O)N3CCCC3)CC[C@@H]12`, in assay [2], the result was Active.
With `C[C@]12CC[C@H](O)CC1=CC[C@@H]1[C@@H]2CC[C@]2(C)/C(=C/C(N)=O)CC[C@@H]12`, the outcome in assay [1] and in assay [2] was inactive. Also, the result in assay [3] and in assay [4] was Active.
As to `C[C@]12CC[C@H](O)CC1=CC[C@@H]1[C@@H]2CC[C@]2(C)/C(=C\C(=O)N3CCCC3)CC[C@@H]12`, the outcome in assay [1] was inactive.
